Assays:
Format in all cases: in vivo
Downey Brome = assay: Selective postemergence, track sprayer
Method in brief: (§1)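 Read-out: visual injury at 2 weeks, 0 = no effect, 100 = complete kill. Plants ~10 cm tall in pots; track sprayer application in 280.6 L/ha water + 0.1% Tween-20; blank-sprayed controls.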

Goosegrass = assay: Selective postemergence, track sprayer
Method in brief: as §1

Red Top = assay: Selective postemergence, track sprayer
Method in brief: as §1

Green Foxtail = assay: Selective postemergence, track sprayer
Method in brief: as §1

Bermudagrass = assay: Selective postemergence, track sprayer
Method in brief: as §1

Annual Bluegrass = assay: Selective postemergence, track sprayer
Method in brief: as §1

Blackgrass = assay: Selective postemergence, track sprayer
Method in brief: as §1

Orchardgrass = assay: Selective postemergence, track sprayer
Method in brief: as §1

Yellow Foxtail = assay: Preemergent activity; details: Setaria, pre-emergence, read-out: Preemergence Control; for pest or weed control at 70 g/ha: 0.07 kgs/hectare; for pest or weed control at 280 g/ha: 0.28 kgs/hectare
Method in brief: (§2)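 Test compound was dissolved in acetone at twice the final concentration, then mixed with an equal volume of water containing 0.1% w/w Tween-20. The resulting emulsion was sprayed uniformly at a predetermined rate onto sandy loam seed beds sown with each species. Controls received acetone–Tween-20–water only.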

Wild Oats = assay: Preemergent activity; details: Avena fatua, pre-emergence, read-out: Preemergence Control; for pest or weed control at 70 g/ha: 0.07 kgs/hectare; for pest or weed control at 280 g/ha: 0.28 kgs/hectare
Method in brief: as §2

Johnson Grass = assay: Preemergent activity; details: Sorghum halepense, pre-emergence, read-out: Preemergence Control; for pest or weed control at 70 g/ha: 0.07 kgs/hectare; for pest or weed control at 280 g/ha: 0.28 kgs/hectare
Method in brief: as §2

COC(=O)C(C)Oc1ccc(Oc2ccc(Br)cc2F)cc1 (racemic) [Example 4-Bromo-, 2-[4-(4-bromo-2-fluorophenoxy)phenoxy]propionic acid methyl ester]
Percent Control (Downey Brome; 0.0011 kgs/hectare): 0% | Percent Control (Downey Brome; 0.0023 kgs/hectare): 0% | Percent Control (Downey Brome; 0.0045 kgs/hectare): 0% | Percent Control (Downey Brome; 0.009 kgs/hectare): 0% | Percent Control (Downey Brome; 0.018 kgs/hectare): 0% | Percent Control (Downey Brome; 0.035 kgs/hectare): 0% | Percent Control (Downey Brome; 0.07 kgs/hectare): 0% | Percent Control (Downey Brome; 0.14 kgs/hectare): 0% | Percent Control (Downey Brome; 0.28 kgs/hectare): 0% | Percent Control (Downey Brome; 0.56 kgs/hectare): 0% | Percent Control (Goosegrass; 0.0011 kgs/hectare): 0% | Percent Control (Goosegrass; 0.0023 kgs/hectare): 0% | Percent Control (Goosegrass; 0.0045 kgs/hectare): 30% | Percent Control (Goosegrass; 0.009 kgs/hectare): 20% | Percent Control (Goosegrass; 0.035 kgs/hectare): 80% | Percent Control (Goosegrass; 0.07 kgs/hectare): 100% | Percent Control (Goosegrass; 0.14 kgs/hectare): 100% | Percent Control (Goosegrass; 0.28 kgs/hectare): 100% | Percent Control (Goosegrass; 0.56 kgs/hectare): 100% | Percent Control (Red Top; 0.0011 kgs/hectare): 0% | Percent Control (Red Top; 0.0023 kgs/hectare): 0% | Percent Control (Red Top; 0.0045 kgs/hectare): 0% | Percent Control (Red Top; 0.009 kgs/hectare): 20% | Percent Control (Red Top; 0.035 kgs/hectare): 50% | Percent Control (Red Top; 0.07 kgs/hectare): 80% | Percent Control (Red Top; 0.14 kgs/hectare): 90% | Percent Control (Red Top; 0.28 kgs/hectare): 100% | Percent Control (Red Top; 0.56 kgs/hectare): 100% | Percent Control (Green Foxtail; 0.0011 kgs/hectare): 0% | Percent Control (Green Foxtail; 0.0023 kgs/hectare): 20% | Percent Control (Green Foxtail; 0.0045 kgs/hectare): 90% | Percent Control (Green Foxtail; 0.009 kgs/hectare): 90% | Percent Control (Green Foxtail; 0.035 kgs/hectare): 100% | Percent Control (Green Foxtail; 0.07 kgs/hectare): 100% | Percent Control (Green Foxtail; 0.14 kgs/hectare): 100% | Percent Control (Green Foxtail; 0.28 kgs/hectare): 100% | Percent Control (Green Foxtail; 0.56 kgs/hectare): 100% | Percent Control (Bermudagrass; 0.0011 kgs/hectare): 0% | Percent Control (Bermudagrass; 0.0023 kgs/hectare): 0% | Percent Control (Bermudagrass; 0.0045 kgs/hectare): 0% | Percent Control (Bermudagrass; 0.009 kgs/hectare): 20% | Percent Control (Bermudagrass; 0.035 kgs/hectare): 90% | Percent Control (Bermudagrass; 0.07 kgs/hectare): 95% | Percent Control (Bermudagrass; 0.14 kgs/hectare): 90% | Percent Control (Bermudagrass; 0.28 kgs/hectare): 100% | Percent Control (Bermudagrass; 0.56 kgs/hectare): 100% | Percent Control (Annual Bluegrass; 0.0011 kgs/hectare): 0% | Percent Control (Annual Bluegrass; 0.0023 kgs/hectare): 0% | Percent Control (Annual Bluegrass; 0.0045 kgs/hectare): 0% | Percent Control (Annual Bluegrass; 0.009 kgs/hectare): 0% | Percent Control (Annual Bluegrass; 0.018 kgs/hectare): 0% | Percent Control (Annual Bluegrass; 0.035 kgs/hectare): 0% | Percent Control (Annual Bluegrass; 0.07 kgs/hectare): 0% | Percent Control (Annual Bluegrass; 0.14 kgs/hectare): 0% | Percent Control (Annual Bluegrass; 0.28 kgs/hectare): 0% | Percent Control (Annual Bluegrass; 0.56 kgs/hectare): 0% | Percent Control (Blackgrass; 0.0011 kgs/hectare): 30% | Percent Control (Blackgrass; 0.0023 kgs/hectare): 50% | Percent Control (Blackgrass; 0.0045 kgs/hectare): 50% | Percent Control (Blackgrass; 0.009 kgs/hectare): 100% | Percent Control (Blackgrass; 0.035 kgs/hectare): 100% | Percent Control (Blackgrass; 0.07 kgs/hectare): 100% | Percent Control (Blackgrass; 0.14 kgs/hectare): 100% | Percent Control (Blackgrass; 0.28 kgs/hectare): 100% | Percent Control (Blackgrass; 0.56 kgs/hectare): 100% | Percent Control (Orchardgrass; 0.0011 kgs/hectare): 0% | Percent Control (Orchardgrass; 0.0023 kgs/hectare): 0% | Percent Control (Orchardgrass; 0.0045 kgs/hectare): 0% | Percent Control (Orchardgrass; 0.009 kgs/hectare): 0% | Percent Control (Orchardgrass; 0.035 kgs/hectare): 0% | Percent Control (Orchardgrass; 0.07 kgs/hectare): 80% | Percent Control (Orchardgrass; 0.14 kgs/hectare): 90% | Percent Control (Orchardgrass; 0.28 kgs/hectare): 90% | Percent Control (Orchardgrass; 0.56 kgs/hectare): 90%

COC(=O)C(C)Oc1ccc(Oc2ccc(Cl)cc2F)cc1 (racemic) [Example 4-Chloro-, 2-[4-(4-chloro-2-fluorophenoxy)phenoxy]propionic acid methyl ester]
pest or weed control at 70 g/ha (Yellow Foxtail): 0% | pest or weed control at 140 g/ha (Yellow Foxtail; 0.14 kgs/hectare): 10% | pest or weed control at 280 g/ha (Yellow Foxtail): 90% | pest or weed control at 560 g/ha (Yellow Foxtail; 0.56 kgs/hectare): 95% | pest or weed control at 1120 g/ha (Yellow Foxtail; 1.12 kgs/hectare): 95% | pest or weed control at 70 g/ha (Wild Oats): 0% | pest or weed control at 140 g/ha (Wild Oats; 0.14 kgs/hectare): 0% | pest or weed control at 280 g/ha (Wild Oats): 20% | pest or weed control at 560 g/ha (Wild Oats; 0.56 kgs/hectare): 50% | pest or weed control at 1120 g/ha (Wild Oats; 1.12 kgs/hectare): 70% | pest or weed control at 70 g/ha (Johnson Grass): 0% | pest or weed control at 140 g/ha (Johnson Grass; 0.14 kgs/hectare): 0% | pest or weed control at 280 g/ha (Johnson Grass): 0% | pest or weed control at 560 g/ha (Johnson Grass; 0.56 kgs/hectare): 60% | pest or weed control at 1120 g/ha (Johnson Grass; 1.12 kgs/hectare): 80%

COC(=O)C(C)Oc1ccc(Oc2ccc(C(F)(F)F)cc2F)cc1 (stereo not shown) [2-[4-(2-fluoro-4-trifluoromethylphenoxy)phenoxy]propionic acid methyl ester]
pest or weed control at 18 g/ha (Yellow Foxtail; 0.018 kgs/hectare): 20% | pest or weed control at 35 g/ha (Yellow Foxtail; 0.035 kgs/hectare): 70% | pest or weed control at 70 g/ha (Yellow Foxtail): 100% | pest or weed control at 114 g/ha (Yellow Foxtail; 0.114 kgs/hectare): 100% | pest or weed control at 280 g/ha (Yellow Foxtail): 100% | pest or weed control at 18 g/ha (Wild Oats; 0.018 kgs/hectare): 0% | pest or weed control at 35 g/ha (Wild Oats; 0.035 kgs/hectare): 20% | pest or weed control at 70 g/ha (Wild Oats): 90% | pest or weed control at 114 g/ha (Wild Oats; 0.114 kgs/hectare): 100% | pest or weed control at 280 g/ha (Wild Oats): 100% | pest or weed control at 18 g/ha (Johnson Grass; 0.018 kgs/hectare): 20% | pest or weed control at 35 g/ha (Johnson Grass; 0.035 kgs/hectare): 60% | pest or weed control at 70 g/ha (Johnson Grass): 90% | pest or weed control at 114 g/ha (Johnson Grass; 0.114 kgs/hectare): 100% | pest or weed control at 280 g/ha (Johnson Grass): 100%

COC(=O)[C@@H](C)Oc1ccc(Oc2ccc(Br)cc2F)cc1 [4-Bromo-(R-Enantiomer), R enantiomer of 2-[4-(4-bromo-2-fluorophenoxy)phenoxy]propionic acid methyl ester]
Percent Control (Downey Brome; 0.00055 kgs/hectare): 0% | Percent Control (Downey Brome; 0.0011 kgs/hectare): 0% | Percent Control (Downey Brome; 0.0023 kgs/hectare): 0% | Percent Control (Downey Brome; 0.0045 kgs/hectare): 0% | Percent Control (Downey Brome; 0.009 kgs/hectare): 0% | Percent Control (Downey Brome; 0.018 kgs/hectare): 0% | Percent Control (Downey Brome; 0.035 kgs/hectare): 0% | Percent Control (Downey Brome; 0.07 kgs/hectare): 0% | Percent Control (Downey Brome; 0.14 kgs/hectare): 0% | Percent Control (Downey Brome; 0.28 kgs/hectare): 0% | Percent Control (Goosegrass; 0.00055 kgs/hectare): 0% | Percent Control (Goosegrass; 0.0011 kgs/hectare): 0% | Percent Control (Goosegrass; 0.0023 kgs/hectare): 0% | Percent Control (Goosegrass; 0.0045 kgs/hectare): 20% | Percent Control (Goosegrass; 0.009 kgs/hectare): 70% | Percent Control (Goosegrass; 0.018 kgs/hectare): 50% | Percent Control (Goosegrass; 0.035 kgs/hectare): 70% | Percent Control (Goosegrass; 0.07 kgs/hectare): 70% | Percent Control (Goosegrass; 0.14 kgs/hectare): 80% | Percent Control (Goosegrass; 0.28 kgs/hectare): 80% | Percent Control (Red Top; 0.00055 kgs/hectare): 0% | Percent Control (Red Top; 0.0011 kgs/hectare): 0% | Percent Control (Red Top; 0.0023 kgs/hectare): 0% | Percent Control (Red Top; 0.0045 kgs/hectare): 0% | Percent Control (Red Top; 0.009 kgs/hectare): 0% | Percent Control (Red Top; 0.018 kgs/hectare): 0% | Percent Control (Red Top; 0.035 kgs/hectare): 30% | Percent Control (Red Top; 0.07 kgs/hectare): 90% | Percent Control (Red Top; 0.14 kgs/hectare): 90% | Percent Control (Red Top; 0.28 kgs/hectare): 90% | Percent Control (Green Foxtail; 0.00055 kgs/hectare): 30% | Percent Control (Green Foxtail; 0.0011 kgs/hectare): 70% | Percent Control (Green Foxtail; 0.0023 kgs/hectare): 90% | Percent Control (Green Foxtail; 0.0045 kgs/hectare): 95% | Percent Control (Green Foxtail; 0.009 kgs/hectare): 95% | Percent Control (Green Foxtail; 0.018 kgs/hectare): 100% | Percent Control (Green Foxtail; 0.035 kgs/hectare): 100% | Percent Control (Green Foxtail; 0.07 kgs/hectare): 100% | Percent Control (Green Foxtail; 0.14 kgs/hectare): 100% | Percent Control (Green Foxtail; 0.28 kgs/hectare): 100% | Percent Control (Bermudagrass; 0.00055 kgs/hectare): 0% | Percent Control (Bermudagrass; 0.0011 kgs/hectare): 0% | Percent Control (Bermudagrass; 0.0023 kgs/hectare): 0% | Percent Control (Bermudagrass; 0.0045 kgs/hectare): 20% | Percent Control (Bermudagrass; 0.009 kgs/hectare): 30% | Percent Control (Bermudagrass; 0.018 kgs/hectare): 60% | Percent Control (Bermudagrass; 0.035 kgs/hectare): 90% | Percent Control (Bermudagrass; 0.07 kgs/hectare): 90% | Percent Control (Bermudagrass; 0.14 kgs/hectare): 90% | Percent Control (Bermudagrass; 0.28 kgs/hectare): 95% | Percent Control (Annual Bluegrass; 0.00055 kgs/hectare): 0% | Percent Control (Annual Bluegrass; 0.0011 kgs/hectare): 0% | Percent Control (Annual Bluegrass; 0.0023 kgs/hectare): 0% | Percent Control (Annual Bluegrass; 0.0045 kgs/hectare): 0% | Percent Control (Annual Bluegrass; 0.009 kgs/hectare): 0% | Percent Control (Annual Bluegrass; 0.018 kgs/hectare): 0% | Percent Control (Annual Bluegrass; 0.035 kgs/hectare): 0% | Percent Control (Annual Bluegrass; 0.07 kgs/hectare): 0% | Percent Control (Annual Bluegrass; 0.14 kgs/hectare): 0% | Percent Control (Annual Bluegrass; 0.28 kgs/hectare): 0% | Percent Control (Blackgrass; 0.00055 kgs/hectare): 50% | Percent Control (Blackgrass; 0.0011 kgs/hectare): 60% | Percent Control (Blackgrass; 0.0023 kgs/hectare): 60% | Percent Control (Blackgrass; 0.0045 kgs/hectare): 60% | Percent Control (Blackgrass; 0.009 kgs/hectare): 80% | Percent Control (Blackgrass; 0.018 kgs/hectare): 100% | Percent Control (Blackgrass; 0.035 kgs/hectare): 100% | Percent Control (Blackgrass; 0.07 kgs/hectare): 100% | Percent Control (Blackgrass; 0.14 kgs/hectare): 100% | Percent Control (Blackgrass; 0.28 kgs/hectare): 100% | Percent Control (Orchardgrass; 0.00055 kgs/hectare): 0% | Percent Control (Orchardgrass; 0.0011 kgs/hectare): 0% | Percent Control (Orchardgrass; 0.0023 kgs/hectare): 0% | Percent Control (Orchardgrass; 0.0045 kgs/hectare): 0% | Percent Control (Orchardgrass; 0.009 kgs/hectare): 0% | Percent Control (Orchardgrass; 0.018 kgs/hectare): 0% | Percent Control (Orchardgrass; 0.035 kgs/hectare): 0% | Percent Control (Orchardgrass; 0.07 kgs/hectare): 0% | Percent Control (Orchardgrass; 0.14 kgs/hectare): 0% | Percent Control (Orchardgrass; 0.28 kgs/hectare): 50%

— patent US4725683A, “Fluorophenoxyphenoxypropionates and derivatives thereof” (The Dow Chemical Company, priority 1985, dated 1988)
